Assay [1] deals with MV-4-11 cells. Nature of the assay: Cell growth inhibition assay (CellTiter-Glo), MV-4-11.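 On all read-outs here: cellular ATP luminescence after 4 days, 3-fold dilution series from 10 µM top dose, vehicle (0.1% DMSO) set to 100%, cell-free medium set to −100%, day 0 corrected.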 The note with it: for GI50: Homo sapiens, MV4-11, read-out: MV-4-11 GI50; for MV-4-11 TGI: MV-4-11 cells, total growth inhibition, CellTiter-Glo. In general terms: In ATP-based viability assays light output follows the ATP content of the culture.
The test system of assay [2] is K-562 cells. Nature of the assay: Cell growth inhibition assay (CellTiter-Glo), K-562.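 On all read-outs here: cellular ATP measured by luminescence after 4 days of exposure, 3-fold dilution series from 10 µM, DMSO vehicle-treated cells define 100%, cell-free medium wells −100%.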 The conditions noted are these: for GI50: Homo sapiens, K562, read-out: K-562 GI50; for K-562 TGI: K-562 cells, total growth inhibition, CellTiter-Glo.
Assay [3] relates to THP-1 cells. Nature of the assay: Cell growth inhibition assay (CellTiter-Glo), THP-1.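 On all read-outs here: viability read as cellular ATP luminescence after 4 days, 3-fold dilution series from 10 µM, DMSO vehicle-treated cells taken as 100%, cell-free medium wells as −100%.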 The conditions noted are these: for GI50: Homo sapiens, THP-1, read-out: THP-1 GI50; for THP-1 TGI: THP-1 cells, total growth inhibition, CellTiter-Glo.
Assay [4] deals with BRD4 (His-Brd4(44-477)) (Homo sapiens (Human), UniProt O60885). Nature of the assay: TR-FRET in-vitro binding assay for BRD4. The conditions noted are these: single determination or n ≧ 2 independent determinations, read-out: Biochemical IC50 BRD4. The procedure: (§1) TR-FRET In-Vitro Binding Assays for BRD2, BRD3, and BRD4:
(§2) All assays were performed in 384 well microtiter plates. Each assay plate contained 8-point serial dilutions for 40 test compounds, plus 16 high- and 16 low controls. Liquid handling and incubation steps were done on an Innovadyne Nanodrop Express equipped with a robotic arm (Thermo CatX, Perkin Elmer/Caliper Twister II) and an incubator (Liconic STX40, Thermo Cytomat 2C450). The assay plates were prepared by addition of 50 nl per well of compound solution in 90% DMSO HummingBird nanodispenser (Zinsser Analytic). […] Reactions were incubated at 30° C. for 35 minutes. […] After 35 minutes incubation at 30° C., plates were measured in a Perkin Elmer EnVision multilabel reader.
(§3) Preparation of Compound Dilutions
(§4) Test compounds were dissolved in DMSO (10 mM) and transferred into 1.4 mL flat bottom or V-shaped Matrix tubes carrying a unique 2D matrix. The stock solutions were stored at […] if not used immediately. For the test procedure the vials were defrosted and identified by a scanner whereby a working sheet was generated that guided the subsequent working steps.
(§5) Compound dilutions were made in 96 well plates. This format enabled the assay of maximally 40 individual test compounds at 8 concentrations (single points) including 4 reference compounds, if desired (known BET inhibitors from the prior art, for this and other assays of the type disclosed herein). The dilution protocol included the production of “pre-dilution plates”, “master plates” and “assay plates”.
(§6) Pre-Dilution Plates: 96 polypropylene well plates were used as pre-dilution plates. A total of 4 pre-dilution plates were prepared including 10 test compounds each on the plate positions A1-A10, one standard compound at A11 and one DMSO control at A12. All dilution steps were done on a HamiltonSTAR robot.
(§7) These plates were used directly for the assay which was performed in a total volume of 13.55 μL.
A general note: In TR-FRET formats the signal depends on donor and acceptor labels being close together.

Assay [5] addresses CREBBP bromodomain (His-CREBBP(1081-1197)) (Homo sapiens (Human), UniProt Q92793). In words: AlphaScreen in-vitro binding assay for CREBBP. The conditions noted are these: single determination or n ≧ 2 independent determinations, read-out: Biochemical IC50 CREBBP. The procedure: AlphaScreen In-Vitro Binding Assay for CREBBP
In order to assess bromodomain selectivity, we set up a binding assay using the bromodomain encoded by the CREBBP gene. […] Reactions were incubated at 30° C. for 35 minutes. Subsequently 4.5 μl per well detection mix (50 mM HEPES, pH 7.5, 0.005% Tween20, 0.02% BSA, 150 mM NaCl, 45 μg/ml Ni-chelate acceptor beads, 45 μg/mIstreptavidin-donor beads) (Perkin Elmer)) were added. After 60 minutes incubation at room temperature, plates were measured in a Perkin Elmer EnVision multilabel reader. IC50 values were determined from percent inhibition values at different compound concentrations by non-linear regression analysis.
as §3, §4, §5, §6, §7

The target in assay [6] is BRD3 (His-Brd3(20-477)) (Homo sapiens (Human), UniProt Q15059). In words: TR-FRET in-vitro binding assay for BRD3. The conditions noted are these: single determination or n ≧ 2 independent determinations, read-out: Biochemical IC50 BRD3. Here is the method:
as §1, §2, §3, §4, §5, §6, §7

What is called GI50 is the concentration that inhibits growth by half. One may read the pIC50 as −log10 of the IC50, conventionally taken in molar units.

Molecules are shown by their SMILES. pIC50: −log10 of the molar value.

CREBBP bromodomain (His-CREBBP(1081-1197)), sequence (Q92793 1081-1197): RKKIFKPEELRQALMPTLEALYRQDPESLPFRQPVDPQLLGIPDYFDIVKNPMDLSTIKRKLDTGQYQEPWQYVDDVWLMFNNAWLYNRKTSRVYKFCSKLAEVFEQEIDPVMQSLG
BRD3 (His-Brd3(20-477)), sequence (Q15059 20-477): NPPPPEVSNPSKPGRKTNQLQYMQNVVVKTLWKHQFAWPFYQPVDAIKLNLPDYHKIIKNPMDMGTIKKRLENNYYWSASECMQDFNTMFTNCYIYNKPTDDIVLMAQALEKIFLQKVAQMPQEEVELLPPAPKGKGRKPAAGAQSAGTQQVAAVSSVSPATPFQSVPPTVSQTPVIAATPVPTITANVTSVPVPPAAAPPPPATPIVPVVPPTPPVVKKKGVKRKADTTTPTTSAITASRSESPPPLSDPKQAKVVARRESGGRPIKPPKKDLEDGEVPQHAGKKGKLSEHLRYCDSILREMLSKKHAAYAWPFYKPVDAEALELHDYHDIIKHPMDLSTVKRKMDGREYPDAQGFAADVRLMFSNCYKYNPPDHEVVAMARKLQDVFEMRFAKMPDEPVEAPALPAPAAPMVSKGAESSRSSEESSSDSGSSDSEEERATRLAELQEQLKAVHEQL

As to `Cc1nc2c([nH]1)C(c1ccc(Cl)cc1)N(c1cc(C)c3nnn(C)c3c1)C2=O` (centres unmarked) [Example 1, 6-(4-chlorophenyl)-5-(3,7-dimethyl-3H-benzo[d][1,2,3]triazol-5-yl)-2-methyl-5,6-dihydropyrrolo[3,4-d]imidazol-4(1H)-one], in assay [1], the GI50 was determined as 26.3 nM and the “MV-4-11 TGI” value stood at 0.05235 µM. Further, in assay [2], the concentration for 50% growth inhibition (GI50) came out at 160 nM and the “K-562 TGI” value was above 10 µM. In addition, in assay [3], the GI50 was found to be 38.4 nM and the “THP-1 TGI” value was found to be 0.0799 µM.

Take `Cc1cc(N2C(=O)c3nc(C4=CCOCC4)n(C4COC4)c3C2c2ccc(Cl)cc2)cc2c1nnn2C` (centres unmarked) [Example 93, 6-(4-chlorophenyl)-2-(3,6-dihydro-2H-pyran-4-yl)-5-(1,4-dimethyl-1H-benzo[d][1,2,3]triazol-6-yl)-1-(oxetan-3-yl)-5,6-dihydropyrrolo[3,4-d]imidazol-4(1H)-one]: the pIC50 in assay [4] was 7.67; in assay [5], 5.57; in assay [6], 7.47. In addition, the 50% growth inhibitory concentration (GI50) in assay [1] came to 15.9 nM; in assay [2] it was 104 nM; in assay [3], 21.2 nM. In addition, in assay [1], the “MV-4-11 TGI” value came to 0.032 µM. For the same compound, the “K-562 TGI” value in assay [2] was above 10 µM. Further, in assay [3], the “THP-1 TGI” value stood at 0.06935 µM.

With `Cc1cc(N2C(=O)c3nc(C)n(C4COC4)c3C2c2ccc(Cl)cc2)cc2c1nnn2C` (centres unmarked) [Example 94, 6-(4-chlorophenyl)-5-(1,4-dimethyl-1H-benzo[d][1,2,3]triazol-6-yl)-2-methyl-1-(oxetan-3-yl)-5,6-dihydropyrrolo[3,4-d]imidazol-4(1H)-one], the pIC50 was 7.15 in assay [4], 5.09 in assay [5] and 7.34 in assay [6]. In addition, the values for the GI50 in assay [1], in assay [2] and in assay [3] were 40.6 nM, 270 nM and 47.4 nM, respectively. For the same compound, the “MV-4-11 TGI” value in assay [1] came out at 0.0687 µM. In assay [2], the “K-562 TGI” value is above 10 µM. The “THP-1 TGI” value in assay [3] was found to be 0.09435 µM.

In the case of `Cc1cc(N2C(=O)c3nc(C4CC4)n(C4COC4)c3C2c2ccc(Cl)cc2)cc2c1nnn2C` (centres unmarked) [Example 95, 6(4-chlorophenyl)-2-cyclopropyl-5-(1,4-dimethyl-1H-benzo[d][1,2,3]triazol-6-yl)-1-(oxetan-3-yl)-5,6-dihydropyrrolo[3,4-d]imidazol-4(1H)-one], the negative logarithm of the IC50 (pIC50) was 7.58 in assay [4], 5.71 in assay [5] and 7.54 in assay [6]. Moreover, the values for the GI50 in assay [1], in assay [2] and in assay [3] were 28 nM, 85.7 nM and 17 nM, respectively. Besides, in assay [1], the “MV-4-11 TGI” value was 0.042 µM. Also, in assay [2], the “K-562 TGI” value was above 10 µM. Also, in assay [3], the “THP-1 TGI” value amounted to 0.0524 µM.

For `Cc1cc(N2C(=O)c3nc(C4=CCN(C)CC4)n(C4COC4)c3C2c2ccc(Cl)cc2)cc2c1nnn2C` (centres unmarked) [Example 96, 6-(4-chlorophenyl)-5-(1,4-dimethyl-1H-benzo[d][1,2,3]triazol-6-yl)-2-(1-methyl-1,2,3,6-tetrahydropyridin-4-yl)-1-(oxetan-3-yl)-5,6-dihydropyrrolo[3,4-d]imidazol-4(1H)-one], the figures for the negative-log IC50 (pIC50) in assay [4], in assay [5] and in assay [6] were 7.41, 5.40 and 7.47, respectively. Also, the results for the 50% growth inhibitory concentration (GI50) in assay [1], in assay [2] and in assay [3] were 79.3 nM, 351 nM and 202 nM, respectively. In addition, the “MV-4-11 TGI” value in assay [1] turned out to be 0.1206 µM. Also, in assay [2], the “K-562 TGI” value was above 10 µM. Further, the “THP-1 TGI” value in assay [3] came out at 0.2736 µM.

For `Cc1cc(N2C(=O)c3nc(C4CCOC4)n(C(C)C)c3C2c2ccc(Cl)cc2)cc2c1nnn2C` (centres unmarked) [Example 99, 6-(4-chlorophenyl)-5-(1,4-dimethyl-1H-benzo[d][1,2,3]triazol-6-yl)-1-isopropyl-2-(tetrahydrofuran-3-yl)-5,6-dihydropyrrolo[3,4-d]imidazol-4(1H)-one], the pIC50 was 7.80 in assay [4], 6.02 in assay [5] and 7.74 in assay [6].

In the case of `Cc1cc(N2C(=O)c3nc(C4CCOCC4)n(C4COC4)c3C2c2ccc(Cl)cc2)cc2c1nnn2C` (centres unmarked) [Example 105, 6-(4-chlorophenyl)-5-(1,4-dimethyl-1H-benzo[d][1,2,3]triazol-6-yl)-1-(oxetan-3-yl)-2-(tetrahydro-2H-pyran-4-yl)-5,6-dihydropyrrolo[3,4-d]imidazol-4(1H)-one], the results for the negative-log IC50 (pIC50) in assay [4], in assay [5] and in assay [6] were 7.89, 5.70 and 7.77, respectively. Besides, the GI50 amounted to 10.8 nM in assay [1], 90.2 nM in assay [2] and 12.3 nM in assay [3]. For the same compound, the “MV-4-11 TGI” value in assay [1] came to 0.02195 µM. Further, the “K-562 TGI” value in assay [2] was above 10 µM. Besides, the “THP-1 TGI” value in assay [3] amounted to 0.02785 µM.

Consider `COc1ccc(-c2nc3c([nH]2)C(c2ccc(Cl)cc2)N(c2cc(C)c4nnc(C)n4c2)C3=O)cn1` (centres unmarked) [Example 117, 6-(4-chlorophenyl)-5-(3,8-dimethyl-[1,2,4]triazolo[4,3-a]pyridin-6-yl)-2-(6-methoxypyridin-3-yl)-5,6-dihydropyrrolo[3,4-d]imidazol-4(1H)-one], for which, in assay [1], the GI50 is 69.5 nM and the “MV-4-11 TGI” value was found to be 0.112 µM. Besides, in assay [2], the GI50 worked out at 207 nM and the “K-562 TGI” value was above 10 µM. For the same compound, in assay [3], the 50% growth inhibitory concentration (GI50) is 81 nM and the “THP-1 TGI” value turned out to be 0.129 µM.

For `COc1cc(F)ccc1-c1nc2c([nH]1)C(c1ccc(Cl)cc1)N(c1cc(C)c3nnc(C)n3c1)C2=O` (centres unmarked) [Example 137], the negative-log IC50 (pIC50) in assay [4] was 7.07. In addition, in assay [1], the GI50 came to 90.2 nM and the “MV-4-11 TGI” value was found to be 0.1245 µM. Further, in assay [6], the pIC50 is 7.05. Also, in assay [2], the GI50 amounted to 254 nM and the “K-562 TGI” value was above 10 µM. In addition, in assay [3], the GI50 turned out to be 101 nM and the “THP-1 TGI” value stood at 0.213 µM.

Take `COc1ncccc1-c1nc2c(n1C(C)C)C(c1ccc(Cl)cc1)N(c1cc(C)c3nnn(C)c3n1)C2=O` (centres unmarked) [Example 157, 6-(4-chlorophenyl)-5-(3,7-dimethyl-3H-[1,2,3]triazolo[4,5-b]pyridin-5-yl)-1-isopropyl-2-(2-methoxypyridin-3-yl)-5,6-dihydropyrrolo[3,4-d]imidazol-4(1H)-one]: in assay [1], the GI50 came to 10.6 nM and the “MV-4-11 TGI” value is 0.01515 µM. Also, in assay [2], the GI50 came out at 56.8 nM and the “K-562 TGI” value was above 10 µM. In assay [3], the concentration for 50% growth inhibition (GI50) was 8.82 nM and the “THP-1 TGI” value came to 0.02475 µM.

Take `Cc1cc(N2C(=O)c3nc(C4CCOC4)n(C(C)C)c3C2c2ccc(Cl)cc2)nn2c(C)nnc12` (centres unmarked) [Example 170, 6-(4-chlorophenyl)-5-(3,8-dimethyl-[1,2,4]triazolo[4,3-b]pyridazin-6-yl)-1-isopropyl-2-(tetrahydrofuran-3-yl)-5,6-dihydropyrrolo[3,4-d]imidazol-4(1H)-one]: the pIC50 in assay [4] was 7.51; in assay [5] it was below 4.43; in assay [6], 7.37.

For the compound `Cc1cc(N2C(=O)c3nc(C4CCOC4)n(C(C)C)c3[C@H]2c2ccc(Cl)cc2)nn2c(C)nnc12` (stereo partly drawn) [Example 171, (6R)-6-(4-chlorophenyl)-5-(3,8-dimethyl-[1,2,4]triazolo[4,3-b]pyridazin-6-yl)-1-isopropyl-2-(tetrahydrofuran-3-yl)-5,6-dihydropyrrolo[3,4-d]imidazol-4(1H)-one], the values for the pIC50 in assay [4], in assay [5] and in assay [6] were 7.92, 4.75 and above 7.96, respectively.

These data come from US9890166B2, “Imidazopyrrolidine derivatives and their use in the treatment of disease” (NOVARTIS AG, priority 2013, dated 2018).
